# Reference: patent publication EP2706985B1 (Acerus Biopharma Inc., priority 2011, dated 2012)
# Assay: Example 11 Period 2: multiple-dose pharmacokinetics (free and total testosterone, dihydrotestosterone, estradiol, SHBG)
# Details: multi-dose, PK conclusions
smiles,measurement,value
"C[C@]12CC[C@H]3[C@@H](CCC4=CC(=O)CC[C@@]43C)[C@@H]1CC[C@@H]2O [Testosterone, 17β-Hydroxyandrost-4-en-3-one]",time to return to baseline,12 to 15 h
